Experimental data taken from patent US10358434B2, “2-(3-pyridinyl)-1H-benzimidazole derivative compound and medicament containing same” (NIHON MEDI-PHYSICS CO., LTD., priority 2014, dated 2019).

Tests used:
[1] = test system: human adrenal gland section expressing aldosterone-producing adenoma; assay: In vitro autoradiography using human adrenal adenoma; type: binding
Description: From adrenal gland excised from a human patient for treatment of primary aldosteronism, a portion containing aldosterone-producing adenoma was removed and was then frozen. The frozen adrenal gland was embedded in an embedding agent for production of a frozen tissue section (Tissue-Tek O.C.T. Compound, Sakura Finetek Japan). Using a freezing microtome (CM3050S, Leica Microsystems), a 7-μm thin slice section, which is schematically shown in FIGS. 17(a) and 17(b), was produced, and was preserved at −20° C. before use. In FIGS. 17, 71a and 71b indicate aldosterone-producing adenomas, 72a and 72b indicate normal adrenal cortexes, and 73a and 73b indicate normal adrenal medullas. A 5-33 kBq/mL solution was prepared by adding a suitable amount of each of Compounds [^18F] 100, [^18F] 200, [^123I] 400, [^18F] 500, and [^123I] 601 to [^123I] 610, which were obtained by the methods described in Examples 2, 4, 7, 9, 11, 13, 15, 17, 19, 21, 23, 25, 27, and 29, or [^123I] IMTO to a phosphate-buffered physiological saline containing 1 w/v % bovine serum albumin (not containing fatty acid). The radioactivity concentration was measured using an autowell gamma system (ARC-7001, manufactured by Hitachi Aloka Medical, Ltd.). The section was immersed in the obtained sample solution for 10 minutes. For Compounds [^18F] 100, [^18F] 200, [^123I] 400, [^18F] 500, [^123I] 601 and [^123I] 602, the section shown in FIG. 17(a) was used, and for Compounds […] [^123I] IMTO, both sections shown in FIGS. 17(a) and (b) were used. Each sample solution was washed off, and the section was then exposed to an imaging plate (BAS-SR2040, manufactured by FUJIFILM Holdings Corporation) (IP) for 16-20 hours, and thereafter, an autoradiogram was obtained using a fluoro-image analyzer (FLA-7000, manufactured by FUJIFILM Holdings Corporation).
In order to quantitatively compare differences between images caused by ^123I and ^18F nuclides, a correction was made by calculating accumulation of radioactivity within the range of a region of interest (ROI) by means of integral calculation based on half-life, added radioactivity and IP contact time.
610. FIG. 18(b), FIG. 19(b), FIG. 20(b), FIG. 21(b), FIG. 22(a), FIG. 23(a), FIG. 24(a), FIG. 25(a), FIG. 26(a), FIG. 27(a), FIG. 28(a), FIG. 29(a), FIG. 30(a), and FIG. 31(a) each show an autoradiogram of [^123I] IMTO. […] 100, [^18F] 200, [^123I] 400, [^18F] 500, and [^123I] 601 to [^123I] […] The ROI having the same area as each other was established in a normal site and in a site in which aldosterone-producing adenoma had developed. Then, the PSL value (B1) indicating accumulation of radioactivity in the sites of normal adrenal cortexes 72a and 72b was compared with the PSL value (B2) indicating accumulation of radioactivity in the sites of aldosterone-producing adenomas 71a and 71b. In Table 7, the B1, B2 and B2/B1 values of [^18F] 100 indicate the mean values for the number of tests (n), respectively.

[2] = In vivo kinetics experiment (radioactivity distribution); design: species or system Wistar male rat; details: rat; for Adrenal gland/blood ratio of radioactivity accumulation / Adrenal gland/fat ratio of radioactivity accumulation / Adrenal gland/kidney ratio of radioactivity accumulation / Adrenal gland/liver ratio of radioactivity accumulation / Adrenal gland/muscle ratio of radioactivity accumulation / Adrenal gland/small intestine ratio of radioactivity accumulation / Radioactivity distribution Adrenal gland / Radioactivity distribution Bladder (including urine) / Radioactivity distribution Blood / Radioactivity distribution Fat / Radioactivity distribution Femur / Radioactivity distribution Heart / Radioactivity distribution Kidney / Radioactivity distribution Large intestine / Radioactivity distribution Liver / Radioactivity distribution Lung / Radioactivity distribution Muscle (lower limbs) / Radioactivity distribution Remaining whole body / Radioactivity distribution Small intestine / Radioactivity distribution Spleen / Radioactivity distribution Stomach / Radioactivity distribution Testis / Radioactivity distribution Whole brain: caudal vein
Description: Each of Compounds [^18F] 100, [^18F] 200, [^123I] 400, [^18F] 500, and [^123I] 601 to 610 obtained by the methods described in Examples 2, 4, 7, 9, 11, 13, 15, 17, 19, 21, 23, 25, 27, and 29, or [^123I] IMTO, was diluted with a physiological saline containing 1 w/v % ascorbic acid to prepare a solution to be administered. The above described compound (approximately 1 to 3.7 MBq) was injected into the caudal vein of a Wistar male rat (9 weeks old) under anesthesia with a mixed gas of isoflurane/air, and ten minutes after the injection, the rat was sacrificed by exsanguination. From the thus sacrificed rat, blood and organs (heart, lung, stomach, liver, spleen, small intestine, large intestine, kidney, bladder (including urine), muscle (lower limbs), brain, adrenal gland, testis, fat, femur, or thyroid gland) were excised, and the weights thereof were then measured. Thereafter, radioactivity was measured in the blood, the individual excised organs, and the remaining whole body. Further, 30 and 60 minutes after the administration, the same operations as those described above were carried out. […] The symbol “n” in Tables 9 to 23 indicates the number of rats used. In addition, Tables 9 to 23 also show the ratio of radioactivity accumulation in adrenal grand (% ID/g) to radioactivity accumulation in each of blood, liver, kidney, small intestine, muscle and fat (% ID/g).

[3] = Plasma stability evaluation (TLC analysis); type: in vitro ADME; details: 37° C., 60 minutes
Description: Evaluation was made using a heparin-treated normal human plasma pool (Kohjin Bio Co., Ltd.). Compounds [^18F] 100, [^18F] 200, [^123I] 400, [^18F] 500, and [^123I] 601 to 610 obtained by the methods shown in Examples 2, 4, 7, 9, 11, 13, 15, 17, 19, 21, 23, 25, 27, and 29 were each added to the aforementioned human plasma (5 mL), and the obtained mixture was then incubated at 37° C. for 60 minutes. Thereafter, the mixture was centrifuged with addition of methanol, so that a deproteinization treatment was carried out. Thereafter, stability was evaluated by TLC analysis. As TLC analysis conditions, the TLC analysis conditions applied upon the above described synthesis of each compound were applied.

Fc1cc2nc(-c3cncc(Cn4ccnc4)c3)n(CC[18F])c2cc1Br [[^18F] 200, 6-Bromo-5-fluoro-1-(2-[^18F]fluoroethyl)-2-[5-(imidazol-1-ylmethyl)pyridin-3-yl]benzimidazole]
accumulation of radioactivity in adrenal gland section (autoradiogram) ([1]; FIGS. 18 to 31): accumulation of radioactivity was selectively observed in a region in which aldosterone-producing adenoma had been pathologically observed
B2/B1 accumulation ratio ([1]; section of FIG. 17(a)): 3.34
B2 (PSL value, aldosterone-producing adenoma) ([1]; section of FIG. 17(a), site 71a): 4409
B1 (PSL value, normal adrenal cortex) ([1]; section of FIG. 17(a), site 72a): 1321
accumulation of radioactivity in adrenal gland vs blood and peripheral tissues ([2]; Tables 9 to 22): high accumulation of radioactivity in adrenal gland was observed, in comparison to in blood and peripheral tissues
Adrenal gland/blood ratio of radioactivity accumulation ([2]; 10 min after administration): 100.87 ± 36.73
Adrenal gland/fat ratio of radioactivity accumulation ([2]; 10 min after administration): 174.42 ± 63.32
Adrenal gland/kidney ratio of radioactivity accumulation ([2]; 10 min after administration): 11.40 ± 5.81
Adrenal gland/liver ratio of radioactivity accumulation ([2]; 10 min after administration): 2.68 ± 1.01
Adrenal gland/muscle ratio of radioactivity accumulation ([2]; 10 min after administration): 88.35 ± 26.16
Adrenal gland/small intestine ratio of radioactivity accumulation ([2]; 10 min after administration): 13.32 ± 3.08
Radioactivity distribution Adrenal gland ([2]; 10 min after administration): 14.35 ± 4.09 % ID/g
Radioactivity distribution Bladder (including urine) ([2]; 10 min after administration): 1.28 ± 0.11 % ID/g
Radioactivity distribution Blood ([2]; 10 min after administration): 0.15 ± 0.01 % ID/g
Radioactivity distribution Fat ([2]; 10 min after administration): 0.08 ± 0.02 % ID/g
Radioactivity distribution Femur ([2]; 10 min after administration): 0.38 ± 0.03 % ID/g
Radioactivity distribution Heart ([2]; 10 min after administration): 0.32 ± 0.03 % ID/g
Radioactivity distribution Kidney ([2]; 10 min after administration): 1.39 ± 0.39 % ID/g
Radioactivity distribution Large intestine ([2]; 10 min after administration): 0.16 ± 0.01 % ID/g
Radioactivity distribution Liver ([2]; 10 min after administration): 5.54 ± 0.78 % ID/g
Radioactivity distribution Lung ([2]; 10 min after administration): 0.54 ± 0.07 % ID/g
Radioactivity distribution Muscle (lower limbs) ([2]; 10 min after administration): 0.16 ± 0.00 % ID/g
Radioactivity distribution Remaining whole body ([2]; 10 min after administration): 0.15 ± 0.00 % ID/g
Radioactivity distribution Small intestine ([2]; 10 min after administration): 1.07 ± 0.07 % ID/g
Radioactivity distribution Spleen ([2]; 10 min after administration): 1.49 ± 0.32 % ID/g
Radioactivity distribution Stomach ([2]; 10 min after administration): 0.36 ± 0.04 % ID/g
Radioactivity distribution Testis ([2]; 10 min after administration): 0.04 ± 0.00 % ID/g
Radioactivity distribution Whole brain ([2]; 10 min after administration): 0.02 ± 0.00 % ID/g
Adrenal gland/blood ratio of radioactivity accumulation ([2]; 30 min after administration): 145.45 ± 14.69
Adrenal gland/fat ratio of radioactivity accumulation ([2]; 30 min after administration): 425.84 ± 103.54
Adrenal gland/kidney ratio of radioactivity accumulation ([2]; 30 min after administration): 17.00 ± 1.67
Adrenal gland/liver ratio of radioactivity accumulation ([2]; 30 min after administration): 5.06 ± 0.59
Adrenal gland/muscle ratio of radioactivity accumulation ([2]; 30 min after administration): 158.65 ± 18.59
Adrenal gland/small intestine ratio of radioactivity accumulation ([2]; 30 min after administration): 8.44 ± 1.36
Radioactivity distribution Adrenal gland ([2]; 30 min after administration): 22.61 ± 2.12 % ID/g
Radioactivity distribution Bladder (including urine) ([2]; 30 min after administration): 2.82 ± 1.27 % ID/g
Radioactivity distribution Blood ([2]; 30 min after administration): 0.16 ± 0.00 % ID/g
Radioactivity distribution Fat ([2]; 30 min after administration): 0.06 ± 0.02 % ID/g
Radioactivity distribution Femur ([2]; 30 min after administration): 0.40 ± 0.10 % ID/g
Radioactivity distribution Heart ([2]; 30 min after administration): 0.33 ± 0.02 % ID/g
Radioactivity distribution Kidney ([2]; 30 min after administration): 1.33 ± 0.03 % ID/g
Radioactivity distribution Large intestine ([2]; 30 min after administration): 0.27 ± 0.04 % ID/g
Radioactivity distribution Liver ([2]; 30 min after administration): 4.48 ± 0.13 % ID/g
Radioactivity distribution Lung ([2]; 30 min after administration): 0.48 ± 0.04 % ID/g
Radioactivity distribution Muscle (lower limbs) ([2]; 30 min after administration): 0.14 ± 0.01 % ID/g
Radioactivity distribution Remaining whole body ([2]; 30 min after administration): 0.13 ± 0.02 % ID/g
Radioactivity distribution Small intestine ([2]; 30 min after administration): 2.70 ± 0.21 % ID/g
Radioactivity distribution Spleen ([2]; 30 min after administration): 1.09 ± 0.25 % ID/g
Radioactivity distribution Stomach ([2]; 30 min after administration): 0.56 ± 0.06 % ID/g
Radioactivity distribution Testis ([2]; 30 min after administration): 0.05 ± 0.04 % ID/g
Radioactivity distribution Whole brain ([2]; 30 min after administration): 0.01 ± 0.00 % ID/g
Adrenal gland/blood ratio of radioactivity accumulation ([2]; 60 min after administration): 168.33 ± 36.80
Adrenal gland/fat ratio of radioactivity accumulation ([2]; 60 min after administration): 417.70 ± 25.29
Adrenal gland/kidney ratio of radioactivity accumulation ([2]; 60 min after administration): 18.05 ± 3.00
Adrenal gland/liver ratio of radioactivity accumulation ([2]; 60 min after administration): 6.87 ± 1.26
Adrenal gland/muscle ratio of radioactivity accumulation ([2]; 60 min after administration): 180.41 ± 24.02
Adrenal gland/small intestine ratio of radioactivity accumulation ([2]; 60 min after administration): 5.43 ± 1.42
Radioactivity distribution Adrenal gland ([2]; 60 min after administration): 21.73 ± 3.25 % ID/g
Radioactivity distribution Bladder (including urine) ([2]; 60 min after administration): 5.83 ± 2.21 % ID/g
Radioactivity distribution Blood ([2]; 60 min after administration): 0.13 ± 0.01 % ID/g
Radioactivity distribution Fat ([2]; 60 min after administration): 0.05 ± 0.00 % ID/g
Radioactivity distribution Femur ([2]; 60 min after administration): 0.28 ± 0.00 % ID/g
Radioactivity distribution Heart ([2]; 60 min after administration): 0.27 ± 0.02 % ID/g
Radioactivity distribution Kidney ([2]; 60 min after administration): 1.21 ± 0.04 % ID/g
Radioactivity distribution Large intestine ([2]; 60 min after administration): 0.41 ± 0.06 % ID/g
Radioactivity distribution Liver ([2]; 60 min after administration): 3.18 ± 0.23 % ID/g
Radioactivity distribution Lung ([2]; 60 min after administration): 0.39 ± 0.09 % ID/g
Radioactivity distribution Muscle (lower limbs) ([2]; 60 min after administration): 0.12 ± 0.00 % ID/g
Radioactivity distribution Remaining whole body ([2]; 60 min after administration): 0.12 ± 0.00 % ID/g
Radioactivity distribution Small intestine ([2]; 60 min after administration): 4.13 ± 0.83 % ID/g
Radioactivity distribution Spleen ([2]; 60 min after administration): 0.68 ± 0.05 % ID/g
Radioactivity distribution Stomach ([2]; 60 min after administration): 0.65 ± 0.16 % ID/g
Radioactivity distribution Testis ([2]; 60 min after administration): 0.09 ± 0.00 % ID/g
Radioactivity distribution Whole brain ([2]; 60 min after administration): 0.01 ± 0.00 % ID/g
stability in human plasma [3]: hardly metabolized and decomposed in the plasma
Radiochemical purity after incubation in human plasma ([3]; TLC analysis): 92%
